Measured values as given in PubChem BioAssay AID1645868 (Buhrlage Lab, Dana-Farber Cancer Institute and Novartis …, 2021).
Calls of active or inactive are those of the source.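 How the source made its calls: active means maximal percent inhibition of the deubiquitinase OTUD3 of at least 30% across the tested doses; inactive means the rest.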

Target: OTU domain-containing protein 3 (Homo sapiens) (UniProt Q5T2D3)
Test: Validation of screening hits, potency titration, in vitro enzymatic, OTU domain-containing protein 3 DUB inhibitors (AID 1645868)
Conditions: purified OTUD3, ubiquitin-rhodamine cleavage fluorescence, 2 h

Sequence of OTU domain-containing protein 3 (Homo sapiens) (Q5T2D3 whole entry, looked up, the tested form may be a part): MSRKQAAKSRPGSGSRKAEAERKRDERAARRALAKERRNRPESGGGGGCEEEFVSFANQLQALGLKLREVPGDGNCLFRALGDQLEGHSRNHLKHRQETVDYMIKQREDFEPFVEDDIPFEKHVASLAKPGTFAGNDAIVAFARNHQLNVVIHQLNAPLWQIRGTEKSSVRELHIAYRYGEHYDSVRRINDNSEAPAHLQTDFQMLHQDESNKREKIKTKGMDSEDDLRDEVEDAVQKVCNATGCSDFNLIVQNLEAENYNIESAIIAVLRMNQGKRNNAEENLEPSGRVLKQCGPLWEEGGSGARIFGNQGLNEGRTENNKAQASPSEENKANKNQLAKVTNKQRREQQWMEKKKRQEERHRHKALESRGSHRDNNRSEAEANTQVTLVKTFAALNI

| IC50 | SMILES |
| --- | --- |
| 22.5 µM | Cn1c(COc2ccccc2)nnc1SCC(=O)Nc1ccc(N2CCOCC2)cc1 |
| > 50 µM (inactive) | Fc1ccc(Cc2nc(-c3ccc4nncn4c3)no2)cc1 |
| > 50 µM (inactive) | Cc1nc2c3ccccc3nc(NCc3ccc4c(c3)OCO4)n2n1 |
| 15 µM | O=C(CSc1ccc2nnc(-c3ccccc3)n2n1)N1CCCc2ccccc21 |
| 29.7 µM | Oc1ccc(-c2nc3ccc(Cl)cn3c2NC2CCCCC2)cc1 |
| > 50 µM (inactive) | CCc1nc2c(NC(=O)Nc3cccc(C(=O)OC)c3)cccn2n1 |
| 35.9 µM | Cc1ccc([N+](=O)[O-])cc1S(=O)(=O)Nc1cc2sc(=O)oc2c2ccccc12 |
| > 50 µM (inactive) | Cc1cc(O)c(=O)cc2c1C[C@H]1CC(C)(C)/C=C/C[C@@]3(C)Oc4cc(=O)c(O)cc(C)c4C[C@@H]3C[C@H](O)[C@]1(C)O2 |
| > 50 µM (inactive) | COC(=O)c1sccc1NC(=O)COc1ccsc1C(=O)OC |
| > 50 µM (inactive) | Cc1ccc(Cl)cc1NC(=O)COC(=O)c1ccc2ccccc2n1 |
| > 50 µM (inactive) | CN1CCN(C(=O)c2cc(-c3ccn(-c4ccccc4)n3)n3ccccc23)CC1 |
| 16.1 µM | Nc1c(-c2ccc(Cl)cc2)cnc2cc(-c3ccc(Cl)c(Cl)c3)nn12 |
| 20 µM | Cc1ccc(NC(=O)c2cnc3c(c2)c(=O)n(C)c(=O)n3C)cc1 |
| > 50 µM (inactive) | CNC(=O)c1cc2nc(N(C)C)n(-c3ccc(F)cc3)c2s1 |
| > 50 µM (inactive) | O=C(CSc1nc2cc(S(=O)(=O)Nc3ccccc3Cl)ccc2o1)Nc1ccc(N2CCOCC2)cc1 |
| > 50 µM (inactive) | Cc1ccc(-c2noc(-c3nnc(SCC(=O)NC4CCCC4)n3C)n2)cc1 |
| > 50 µM (inactive) | CCOc1ccccc1C(=O)NCC(=O)OC(C(=O)c1c[nH]c2ccccc12)c1ccccc1 (centres undefined) |
| 29.4 µM | O=C1Nc2c(Cl)cc(Cl)cc2C1(O)c1sc(NC2CCCCC2)nc1-c1ccccc1 (centres undefined) |
| > 50 µM (inactive) | COc1ccc(C(=O)CCN2CCOCC2)cc1[N+](=O)[O-] |
| > 50 µM (inactive) | Cc1nnc(Sc2cc(C(=O)NCCN3CCCC3)c3ccccc3n2)s1 |
| > 50 µM (inactive) | CC(C)CC1NC(=O)C2CCCN2C1=O (centres undefined) |
| > 50 µM (inactive) | CCOc1ccc(NC(=O)COc2cccc3c2CCN(CC)C3=O)cc1 |
| > 50 µM (inactive) | COc1ccc(NCc2nc3ccccc3n2Cc2ccccc2)cc1 |

| IC50 | SMILES |
| --- | --- |
| 2.58 µM | COc1ccc(Cl)cc1NC(=O)c1cc(-c2ccccn2)n[nH]1 |
| > 50 µM (inactive) | COc1ccc(C(=O)NCC(c2ccc3c(c2)CCCN3C)N2CCCC2)cc1 (centres undefined) |
| > 50 µM (inactive) | COc1ncccc1CN1CCn2c(Cn3cncn3)cnc2C1C (centres undefined) |
| 21.6 µM | O=C(CCCCn1c(=O)[nH]c2ccccc2c1=O)Nc1cccc(Cl)c1 |
| 35.8 µM | CN(C)c1cccc(C(=O)Nc2cc(-c3cccnc3)no2)c1 |
| 20.4 µM | COc1ccc(-c2nc(-c3nnn(Cc4ccc(F)cc4)c3C)no2)c(OC)c1 |
| 47.6 µM | O=C1N[C@@H](Cc2ccccc2)C(=O)N2[C@H]3Nc4ccccc4[C@@]3([C@]34C[C@H]5C(=O)N[C@@H](Cc6ccccc6)C(=O)N5[C@H]3Nc3ccccc34)C[C@@H]12 |
| > 50 µM (inactive) | COc1ccc(CNC(=O)CN2C(=O)C(C)=C(c3ccc(C)cc3)S2(=O)=O)cc1 |
| > 50 µM (inactive) | Cc1cc(/C=C2/C(=N)N3C(c4ccccc4)=CSC3=NC2=O)c(C)n1-c1ccc(F)cc1 |
| 31.3 µM | COc1ccc(OC)c(NC(=O)Cn2c(=O)n(CC3CCC(C(=O)NCCc4ccccc4)CC3)c(=O)c3ccccc32)c1 (centres undefined) |
| 31.9 µM | CC(C)Cc1nc2sc3c(NCc4ccccc4)ncnc3c2c2c1COC(C)(C)C2 |
| > 50 µM (inactive) | O=C(NCCc1ccccn1)c1cn2ccnc(-c3ccc(F)cc3)c2n1 |
| > 50 µM (inactive) | CCOC(=O)c1sc2nc(CC(=O)OC)nc(NCc3ccco3)c2c1C |
| 49.9 µM | O=C(/C=C/c1ccc(F)cc1)N1CCC(Cc2ccccc2)CC1 |
| > 50 µM (inactive) | O=C(C1CCCN(S(=O)(=O)N2CCCCCC2)C1)N1CCN(c2ccccc2)CC1 (centres undefined) |
| 46.8 µM | CC1=C(c2ccc(C)c(C)c2)S(=O)(=O)NC1=NCC(=O)NCCCc1ccccc1 |
| > 50 µM (inactive) | COc1cccc(-n2nnc(C(=O)Nc3ccc(C)c(C)c3)c2C)c1 |
| > 50 µM (inactive) | COc1ccccc1-c1ccc(SCC(=O)Nc2ccc3c(c2)OCCO3)nn1 |
| > 50 µM (inactive) | CC(C)NC(=O)[C@H](Cc1ccccc1)NC(=O)N1CCn2c1nc1ccccc12 |
| > 50 µM (inactive) | COc1cccc(C(=O)NCc2[nH]nc3ccccc23)c1 |
| > 50 µM (inactive) | Cc1cccc(C(=O)N2CCN3Cc4ccccc4N(C)CC3C2)c1 (centres undefined) |
| > 50 µM (inactive) | Cc1cc(C#N)c2c(C)ccc(C(C)C)cc1-2 |
| > 50 µM (inactive) | O=S(=O)(c1ccccc1Cl)N1CCN(c2ccc3nnc(-c4ccco4)n3n2)CC1 |

| IC50 | SMILES |
| --- | --- |
| > 50 µM (inactive) | COc1ccc(OC)c(NC(=O)CSc2nc(C)nc3c2oc2ccccc23)c1 |
| 38.4 µM | O=C(Cn1nc2ccc(C(=O)NCc3ccccc3)cn2c1=O)Nc1ccc2c(c1)OCO2 |
| 34 µM | O=C1CC(C(=O)Nc2ccccc2Cl)n2nc(-c3ccccc3)cc2N1 (centres undefined) |
| > 50 µM (inactive) | COc1ccc(CC(=O)Nc2ccc3nc(N4CCOCC4)cc(C)c3c2)cc1 |
| > 50 µM (inactive) | COc1ccc(C(=O)Nc2cc(F)c3nc(N4CCOCC4)ccc3c2)c(OC)c1 |
| > 50 µM (inactive) | CC(C)=CCC/C(C)=C/C[C@]1(O)C(=O)c2cc(O)cc(O)c2C(=O)[C@@]1(Cl)CC=C(C)C |
| > 50 µM (inactive) | COc1ccc(C(C)=O)cc1CC(=O)Nc1nc2ccccc2[nH]1 |
| > 50 µM (inactive) | CN(C)S(=O)(=O)c1ccc(N2CCCC2)c(C(=O)Nc2ccc(-c3cn4ccsc4n3)cc2)c1 |
| 15.5 µM | Cc1nc2sc(C(=O)Nc3ccccc3Br)c(N)c2c(C)c1C |
| > 50 µM (inactive) | Clc1ccc(C[n+]2cc(-c3ccc(Cl)cc3)n3c2CCC3)cc1 |
| > 50 µM (inactive) | O=C(COc1nsnc1N1CCOCC1)Nc1ccc(F)c(F)c1 |
| > 50 µM (inactive) | N#C/C(=C\c1ccc(-c2cc(Cl)ccc2Cl)o1)c1nnc2n1CCCCC2 |
| > 50 µM (inactive) | COc1ccc(C)cc1NC(=O)Cc1csc(NC(=O)c2ccc(=O)[nH]c2)n1 |
| 19.2 µM | O=C(COc1ccc(Cl)cc1Cl)Nc1ccc2[nH]c(=O)[nH]c2c1 |
| > 50 µM (inactive) | O=C(NCCc1ccccc1)c1nnn(Cc2cccc(Cl)c2)c1-n1cccc1 |
| > 50 µM (inactive) | c1csc(-c2nc(Nc3ccc4c(c3)CCC4)c3ccccc3n2)c1 |
| > 50 µM (inactive) | O=C(CCCCn1c(=O)c2ccccc2n(CC(=O)Nc2ccc(F)c(Cl)c2)c1=O)NCc1ccco1 |
| > 50 µM (inactive) | CN(C)Cc1ccc(C(=O)Nc2ccc(-c3nccs3)cc2)cc1 |
| > 50 µM (inactive) | O=C(Cn1cc(S(=O)(=O)Cc2ccc(Cl)cc2)c2ccccc21)N1CCCCC1 |
| > 50 µM (inactive) | COc1cccc2c1OCC(C(=O)NCc1ccc(F)cc1)=C2 |
| > 50 µM (inactive) | COc1cc(C(=O)Nc2ccc(-c3csc(C)n3)cc2)cc(OC)c1OC |
| > 50 µM (inactive) | O=C(COc1ccc(F)cc1)Nc1cc(F)c2nc(N3CCOCC3)ccc2c1 |
| > 50 µM (inactive) | Cc1ccc2c(c1)c(=O)c(C(=O)c1ccc(F)cc1)cn2CC(=O)Nc1ccc2c(c1)OCCO2 |
